Data taken from patent EP4725946A1, “IRAK4 DEGRADATION AGENT AND USE THEREOF” (Guangzhou Unirise Pharmaceutical Co., Ltd., priority 2023, dated 2024).
Read-outs that look alike come from different tables or passages of the source.

Key:
IRAK4 protein = biological target: T1, IRAK4 protein (Homo sapiens, UniProt Q9NWZ3); assay: IRAK4 Degradation Assay in THP-1 Cells (Western Blot); type: cell-based; set-up: endogenous in cells; host or cells: THP-1 cells
T1 sequence (Q9NWZ3 1-460): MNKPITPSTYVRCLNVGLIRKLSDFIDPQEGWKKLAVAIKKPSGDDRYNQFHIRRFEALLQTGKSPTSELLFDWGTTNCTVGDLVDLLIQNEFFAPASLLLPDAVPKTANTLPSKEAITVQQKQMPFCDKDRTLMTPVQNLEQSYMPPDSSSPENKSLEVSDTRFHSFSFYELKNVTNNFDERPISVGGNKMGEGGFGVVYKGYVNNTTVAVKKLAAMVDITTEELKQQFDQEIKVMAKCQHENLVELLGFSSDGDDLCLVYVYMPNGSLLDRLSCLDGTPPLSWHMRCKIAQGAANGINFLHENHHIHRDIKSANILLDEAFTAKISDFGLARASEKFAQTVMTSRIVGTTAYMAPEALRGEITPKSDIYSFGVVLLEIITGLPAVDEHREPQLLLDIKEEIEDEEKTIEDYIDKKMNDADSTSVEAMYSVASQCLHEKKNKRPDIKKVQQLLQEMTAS
Protocol: In a 6-well cell culture plate, an appropriate number of THP-1 cells were seeded. The plate was placed in a 5% CO2 incubator at 37°C for overnight culture. Then, the test compound's dimethyl sulfoxide solution was added, with the final concentration ranging from 0.0128 to 1000 nM. After continuous culture for 24 hours, the culture medium was removed, and the cells were collected in a 1.5 mL centrifuge tube. After adding lysis buffer and grinding thoroughly, the mixture was placed on ice for 30 minutes. It was then centrifuged at 15,000 xg and 4°C for 20 minutes. The supernatant was taken, and the level of IRAK4 protein was detected by Western Blot.

[1] = Pharmacokinetic study in mice; type: in vivo; conditions: male mice, plasma
Protocol: Six male mice weighing 20-30 g were randomly divided into two groups. One group received an intravenous (IV) administration of the test compound at a dose of 2 mg/kg, while the other group received an oral (gavage) administration at a dose of 10 mg/kg. Blood samples were collected at 0.083, 0.25, 0.5, 1, 2, 4, 6, 8, and 24 hours post-administration. Plasma samples were processed and analyzed using LC/MS/MS in MRM)mode. A validated standard curve was established for the quantitative determination of the target compound in plasma, enabling the generation of plasma drug concentration-time profiles. Pharmacokinetic parameters were calculated using WinNonlin software with a non-compartmental model.

[2] = THP-1, THP-1 cells, 24 hours, 0.0128 to 1000 nM, IRAK4 protein level by Western Blot, read-out: Dmax%
[3] = THP-1 cells, 24 hours, 0.0128 to 1000 nM, IRAK4 protein level by Western Blot, read-out: DC50
[4] = mouse, iv, i.v. (2 mg/kg), read-out: AUC0-t
[5] = mouse, po, p.o. (10 mg/kg), read-out: AUC0-t
[6] = mouse, po, p.o. (10 mg/kg), read-out: Cmax
[7] = THP-1 cells, 24 hours, 0.0128 to 1000 nM, IRAK4 protein level by Western Blot, read-out: Dmax%

Structure (SMILES)	Dmax (IRAK4 protein; [2])	DC50 (IRAK4 protein; [3])	half-life ([1]; mouse, iv, i.v. (2 mg/kg))	AUC(0-t) [1, 4]	Tmax ([1]; mouse, po, p.o. (10 mg/kg))	half-life ([1]; mouse, po, p.o. (10 mg/kg))	AUC(0-t) [1, 5]	Cmax [1, 6]	Dmax (IRAK4 protein; [7])	AUC(0-t) ([1]; i.v. (2 mg/kg))	T1/2 ([1]; i.v. (2 mg/kg))	AUC(0-t) ([1]; p.o. (10 mg/kg))	Cmax ([1]; p.o. (10 mg/kg))	T1/2 ([1]; p.o. (10 mg/kg))	DC50 (IRAK4 protein)	Dmax (IRAK4 protein; THP-1)
Cn1nc(N2CCC(=O)NC2=O)c2cc(F)c(N3CCC(O)(CC(=O)N4CCC5(CC4)Cc4cc(NC(=O)c6cnn7cccnc67)c(N6CCC(CO)CC6)cc4O5)CC3)cc21 [Example 77]	85.7%	1.28 nM	281 min	12900 ng·h/mL	1 h	231 min	38200 ng·h/mL	4830 ng/mL	–	–	–	–	–	–	–	–
Cn1c(=O)n(C2CCC(=O)NC2=O)c2cccc(C#CCO[C@H]3CC[C@H](CN4CCC5(CC4)Cc4cc(NC(=O)c6cnn7cccnc67)c(N6CCC(O)CC6)cc4O5)CC3)c21 (some centres unmarked) [Compound 46]	–	1.37 nM	–	–	4 h	–	–	–	87%	14148 ng·h/mL	2.76 h	42143 ng·h/mL	3493 ng/mL	3.82 h	–	–
Cn1c(=O)n(C2CCC(=O)NC2=O)c2cccc(C#CCO[C@H]3CC[C@H](CN4CCC5(CC4)Cc4cc(NC(=O)c6cnn7cc(F)cnc67)c(N6CCC(CO)CC6)cc4O5)CC3)c21 (some centres unmarked) [Compound 38]	–	2.81 nM	–	–	4 h	–	–	–	88.8%	11671 ng·h/mL	4.07 h	26962 ng·h/mL	2277 ng/mL	4.27 h	–	–
Cn1c(=O)n(C2CCC(=O)NC2=O)c2cccc(N3CCN(CCN4CCC5(CC4)Cc4cc(NC(=O)c6cnn7cccnc67)c(N6CCC(CO)CC6)cc4O5)CC3)c21 (centres unmarked) [Example 95]	–	–	130 min	4570 ng·h/mL	2 h	167 min	11100 ng·h/mL	1210 ng/mL	–	–	–	–	–	–	0.89 nM	95%
Cn1c(=O)n(C2CCC(=O)NC2=O)c2cccc(C#CCO[C@H]3CC[C@H](CN4CCC5(CC4)Cc4cc(NC(=O)c6coc7cccnc67)c(N6CCC(CO)CC6)cc4O5)CC3)c21 (some centres unmarked) [Compound 35]	–	4.69 nM	227 min	–	2 h	–	–	2070 ng/mL	93.4%	10556 ng·h/mL	–	23388 ng·h/mL	–	4.34 h	–	–
Cn1c(=O)n(C2CCC(=O)NC2=O)c2cccc(C#CCO[C@H]3CC[C@@H](CN4CCC5(CC4)Cc4cc(NC(=O)c6cnn7cccnc67)c(N6CCC(CO)CC6)cc4O5)CC3)c21 (relative stereo) [Compound 55]	89.3%	3.44 nM	180 min	6190 ng·h/mL	1 h	202 min	10000 ng·h/mL	1120 ng/mL	–	–	–	–	–	–	–	–
Cc1cnc2c(C(=O)Nc3cc4c(cc3N3CCC(CO)CC3)OC3(CCN(C[C@H]5CC[C@H](OCC#Cc6cccc7c6n(C)c(=O)n7C6CCC(=O)NC6=O)CC5)CC3)C4)cnn2c1 (some centres unmarked) [Compound 36]	–	2.27 nM	170 min	8730 ng·h/mL	2 h	193 min	18000 ng·h/mL	1740 ng/mL	86.5%	–	–	–	–	–	–	–
